Data on one compound can be found in US20260256826A1, “PREPARATION METHOD AND APPLICATION OF ZINC HYALURONATE” (BLOOMAGE BIOTECHNOLOGY CORPORATION LIMITED, priority 2022, published 2026).

Experiment [1] is described as follows: Superoxide anion scavenging, pyrogallol self-oxidation method. The settings on record: 0.5% solution. The procedure: The pyrogallol self-oxidation method was used. Under weakly alkaline conditions, pyrogallol can undergo self-oxidation reaction to generate superoxide anions and a colored intermediate product with a characteristic absorption peak at 320 nm. In the initial trial stage, the amount of intermediate product is linearly related to time. Since the self-oxidation rate depends on the concentration of superoxide anions, when a superoxide anion scavenger is added, it can react quickly with superoxide anions to inhibit the self-oxidation reaction, thereby preventing the accumulation of intermediates and weakening the light absorption of the solution at 320 nm. Therefore, the scavenging effect of the scavenger on superoxide anions can be evaluated by measuring the […] value. scavenging rate of superoxide anion free radical (%)=(A0-Ax)/A0×100%

A short description of experiment [2]: Hydroxyl radical scavenging, salicylic acid method. As to conditions: 0.5% solution. The source says:
The salicylic acid method was used to determine the hydroxyl radical scavenging ability of zinc hyaluronate samples. A certain amount of H2O2 and FeSO4 were mixed to produce hydroxyl radicals by Fenton reaction. Adding salicylic acid to the reaction system can capture hydroxyl radicals and produce 3-hydroxysalicylic acid and 5-hydroxysalicylic acid. Both products have strong absorption at 510 nm. The reaction equation is as follows: The addition of the sample will compete with salicylic acid for the reaction with OH, thereby reducing the production of 3-hydroxysalicylic acid and 5-hydroxysalicylic acid. The fixed reaction time method was used to measure the absorbance of the reaction solution at 510 nm and compare it with the blank solution to determine the scavenging effect of the analyte on hydroxyl free radicals. The scavenging rate is calculated as follows: In the formula, S is the scavenging rate, A0 is the absorbance value of the blank control, Ax is the absorbance value when the sample is added, and Ax0 is the absorbance value without adding the color developer.

The structures appear in SMILES notation.

Consider `CC(=O)[O-].CC(=O)[O-].[Zn+2]` [zinc acetate dihydrate], for which the “superoxide anion free radical scavenging ability (in words)” value in experiment [1] was “significantly lower than that of HA-Zn”. For the same compound, the “hydroxyl free radical scavenging ability (in words)” value in experiment [2] was “significantly lower than that of HA-Zn”.
